Columns and labels:
[1] = tested on: ATXN3-Q75-GFP SH-SY5Y cells; assay: Confocal microscopy of LC3 puncta, ATXN3-Q75 aggregates and P62 colocalization; format: cell-based, human; conditions: compound 10 μM, range over trehalose and the four compounds; for Colocalization coefficient of ATXN3-Q75-GFP with LC3 puncta: untreated 0.014; for Colocalization coefficient of LC3 with P62: untreated 0.21; for LC3 puncta per cell: untreated induced 2.7
Protocol: ATXN3-Q75-GFP SY5Y cells were seeded onto 12-well plates (1 × 10^5/well) containing poly-L-lysine-coated coverslip on day 1; treated with retinoic acid, test compounds, and doxycycline on day 2; and fixed, permeabilized, and blocked on day 8, as described. The primary anti-LC3 antibody (1:1000; Cell Signaling #83506, Danvers, MA, USA) or anti-P62 antibody (1:1500; Cell Signaling #5114) was used to stain cells at 4 °C overnight. After washing with PBS containing 0.1% Tween 20 (PBST), cells were incubated for 2 h at room temperature with Cy5-conjugated (1:1000, Jackson ImmunoResearch 715-175-150) or Alexa Fluor 555-conjugated (1:500; Invitrogen #A-31572) secondary antibody, and washed three times with PBST. Nuclei were detected using DAPI (0.1 μg/mL; Sigma-Aldrich). The stained cells on coverslips were mounted onto microscope slides with Vectashield antifade mounting medium (Vector Laboratories, Newark, CA, USA) and examined using a Zeiss LSM880 confocal microscope (Carl Zeiss AG, Oberkochen, Baden-Württemberg, Germany). Cell images were acquired at excitation/emission wavelengths of 649/666 nm, 482/536 nm, 555/582 nm, and 385/461 nm for stained LC3 puncta, aggregates, P62, and nuclei, respectively. For colocalization, 300 cells from three independent experiments were analyzed and quantified for the proportion of pixels that LC3 (red) colocalized with P62 (yellow) using Mander’s overlap coefficient (MOC) in ZEN software version 2.1 (Carl Zeiss AG).

[2] = tested on: human ATXN3-Q75-GFP SH-SY5Y cells; assay: MTT compound cytotoxicity assay; format: cell-based; conditions: 0.1–100 μM compound, viability analyzed the next day, n = 3
Protocol: For the compound cytotoxicity assay, ATXN3-Q75-GFP SY5Y cells (2 × 10^4) were plated into 96-well dishes, grown for 20 h, and treated with 0.1–100 μM test compounds. After 1 day, 3-(4,5-dimethylthiazol-2-yl)-2,5-diphenyltetrazolium bromide (MTT, 5 mg/mL) (Sigma-Aldrich, St. Louis, MO, USA) was added to the cells and incubated for 3 h at 37 °C. Lysis buffer (10% Triton X-100, 0.1 N HCl, 18% isopropanol) was then added to dissolve the insoluble formazan crystals. The absorbance of the purple-colored solution was measured at optical density (OD) 570 nm by using a FLx800 fluorescence microplate spectrophotometer (Bio-Tek, Winooski, VT, USA). The half-maximal inhibitory concentration (IC50) was calculated through the construction of a dose–response curve.

| SMILES | Colocalization coefficient of ATXN3-Q75-GFP with LC3 puncta [1] | Colocalization coefficient of LC3 with P62 [1] | LC3 puncta per cell [1] | IC50 [2] [µM] |
| --- | --- | --- | --- | --- |
| O=C(c1ccccc1)c1cc2c(O)cccc2oc1=O [LM-031] | 0.025–0.030 | 0.26–0.29 | 4.6–6.7 |  |
| CC(=O)/C(=C\c1ccccc1[N+](=O)[O-])Cc1c[nH]c2ccccc12 [NC009-1] | 0.025–0.030 | 0.26–0.29 | 4.6–6.7 | > 100 |
| CC(=O)/C(=C\c1ccccc1[N+](=O)[O-])Cc1c(C)[nH]c2ccccc12 [NC009-2] | 0.025–0.030 | 0.26–0.29 | 4.6–6.7 | > 100 |

— publication PMC11477298, “Small Molecules Inducing Autophagic Degradation of Expanded Polyglutamine Protein through Interaction with Both Mutant ATXN3 and LC3” (International Journal of Molecular Sciences, 2024)
